Reference: patent publication US8003595B2, “Amino acid sequences facilitating penetration of a substance of interest into cells and/or cell nuclei” (Cellectis, priority 2000, dated 2011)
Read-outs that look alike come from different tables or passages of the source. Marks after values point to notes of the source that are not given here. Where no end group is shown, it is not given here.

Key:
H1299 cells [1] = experiment: Internalization of biotinylated peptide/S-PO complexes; type: cell-based, human; conditions: peptide: S-PO complexes of 4:1, peptide concentration of 1 μg
How it was run: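 Biotinylated peptides precomplexed 15 min with streptavidin- or avidin-peroxidase at 25:1 or 4:1 peptide:conjugate molar ratio in PBS, diluted in complete medium and incubated with H1299 cells for 4 h. After washing and lysis, internalised peroxidase quantified with ortho-dianisidine/H2O2 at 450 nm against an S-PO standard curve, as pg per 10^4 cells.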

H1299 cells [2] = experiment: Internalization of covalent peptide-peroxidase conjugates; type: cell-based, human; conditions: Table 9; H1299; 0.2 μg/ml conjugate, 2 hours
Experimental: (§1) To evaluate more directly the penetration of the peptides, avoiding the avidin-peroxidase bias, some of the peptides in sequences SEQ ID NO: 25 to 48 were conjugated covalently with cysteine in the C-terminal position of the peptide to peroxidase. The peptides were coupled with peroxidase in the following way:
(§2) One mg of peroxidase activated with maleimide (Sigma) in 100 μl of sodium phosphate buffer, NaCl 0.15 M, EDTA 5 mM, had 1 mg of peptide added to it. After 2 hours at laboratory temperature, β-mercaptoethanol is added to a final concentration of 1.5 mM for 15 minutes. The uncoupled peptide is eliminated by centrifugation on ultrafiltration membranes (cut-off threshold=30,000 Daltons, Sartorius), followed by three washings in sodium phosphate buffer 0.1 M, pH 7.4 containing 0.15 M NaCl.
The H1299 cells are incubated for 2 hours with the conjugates at increasing concentrations of peptide-peroxidase in the culture medium, then washed with PBS. The cells are lysed and the quantity of peptide internalized is evaluated by the dosage of peroxidase in the lysate of the cells with reference to a curve established with peptide-peroxidase.
The quantity of peptide internalized (pg/10^3 cells), depending on the concentrations of conjugates in the culture medium, is shown in Table 8 below.
(§3) It appears that the higher the concentration of peptide-peroxidase conjugate in the culture medium, the more the quantity internalized increases. To compare the penetration of the conjugates by cell type, the cells from different lines were incubated with 0.2 μg/ml of peptide-peroxidase conjugate for 2 hours, and the quantity of peroxidase dosed in the lysates. Table 9 and Table 9B below give the results expressed in pg/10^3 cells. The quantity of each peptide internalized in the different lines generally varies only from single to double.

[3] = ELISA fixation of biotinylated peptides on sensitized plates; type: binding; conditions: read-out: avidity (Kd), quantity of peptides necessary to obtain 50% fixation, Chondroitin A; Table 5
3T3 = experiment: Internalization of covalent peptide-peroxidase conjugates; type: cell-based, mouse; conditions: Table 9, 0.2 μg/ml conjugate, 2 hours
Experimental: as §1, §2, §3

[4] = ELISA fixation of biotinylated peptides on sensitized plates; type: binding; conditions: read-out: avidity (Kd), quantity of peptides necessary to obtain 50% fixation, Heparin; Table 5
Experimental: The capacity of peptides SEQ ID NO: 1 to 21 to attach themselves to DNA and heparin is evaluated on ELISA plates sensitized with DNA or heparin. Dilutions of biotinylated peptides are deposited on the plates and their fixation is shown using streptavidin conjugated with peroxidase. […] The avidity of each of the peptides for DNA or heparin is evaluated by the quantity (×10^−6 M) of peptides necessary to obtain 50% fixation.

[5] = as above; type: binding; conditions: read-out: avidity (Kd), quantity of peptides necessary to obtain 50% fixation, Chondroitin C; Table 5
HeLa cells [6] = experiment: Heparin inhibition of internalization of peptide-peroxidase conjugates; type: cell-based, human
Experimental: (§4) a) Heparin (50 μg/ml) was incubated with the cells for 1 hour before adding the peptide-peroxidase conjugates at 0.2 μg/ml for 2 hours. The cells were then lysed and the peroxidase dosed.
(§5) The quantity of heparin necessary to inhibit 50% penetration of the peptides coupled to peroxidase was evaluated with these two types of cells, by incubating the cells with the peptide-peroxidase conjugates with increasing concentrations of heparin. The results of inhibiting internalization of the peptides are expressed as the heparin concentration (μg/ml) in Table 2 below.

HeLa = experiment: Internalization of covalent peptide-peroxidase conjugates; type: cell-based, human; conditions: Table 9, 0.2 μg/ml conjugate, 2 hours
Experimental: as §1, §2, §3

3T3 cells = experiment: Heparin inhibition of internalization of peptide-peroxidase conjugates; type: cell-based, mouse
Experimental: as §4, §5

[7] = ELISA fixation of biotinylated peptides on sensitized plates; type: binding; conditions: read-out: avidity (Kd), quantity of peptides necessary to obtain 50% fixation, Chondroitin B; Table 5
HT29 cells = experiment: Growth inhibition by peptide-cytochrome C conjugates (MTT); type: cell-based, human
Experimental: (§6) H1299 or HT29 cells (3×10^4 cells/well) are cultivated in 96-well plates for 48 hours at 37° C. in the complete culture medium RPMI with decreasing concentrations (200-3 μg/ml) of natural cytochrome C or cytochrome C conjugated with peptides added, and the culture is continued for 48 hours.
(§7) Table 25 gives the inhibition of growth of the cells by the […].

H1299 cells [8] = experiment: as above; type: cell-based, human
Experimental: as §6, §7

H1299 cells [9] = experiment: Penetration of peptide-cytochrome C conjugates (microscopy); type: cell-based, human; parameters: key: +++: intense; ++: positive; +: slightly positive; −: negative; conditions: 4 hours
Experimental: The penetration of the peptide-cytochrome C conjugates is evaluated with some conjugates prepared with peptides having a biotin on the N-terminal side. H1299 cells are cultivated in the presence of the different (biotinylated) peptide-cytochrome C conjugates at decreasing concentrations (100 to 25 μg/ml) in the culture medium for 4 hours at 37° C. At the end of the culture, the cells are washed three times with PBS, then fixed 15 minutes in ethanol at −20°. The penetration of the peptide-biotin-cytochrome C conjugate is evaluated after incubation for 60 minutes with some avidin coupled with peroxidase. The cells are then washed with PBS, and the activity of the peroxidase is indicated by diaminobenzidine in the presence of H2O2.
The penetration dependent on the concentration of conjugates in the culture medium is evaluated under the microscope by the intensity of the coloration expressed by crosses. Table 24 indicates the penetration of the peptide-cytochrome C conjugates in the cells.

HH9 tumors = system: HH9 tumors; parameters: species or system nude mice; conditions: mouse, in vivo
Experimental: The nude mice received subcutaneous transplants of HH9 tumor cells as described above. On day 9 after the transplant, the mice received twice a week, by peritumoral injection, 100 μg of RNase, or 65 μg of peptide (HBP3)2 or 65 μg of peptide (HBP3)2+100 μg of RNase, or 100 μg of peptide conjugate (HBP3)2-RNase or HBP6-RNase conjugate. On day 26, the mice were killed and their tumors weighed.

[10] = system: Salmonella typhiTy2 (WHO); experiment: microbe, parasite or virus in culture; type: cell-based, S. typhi-Ty2; conditions: S. typhi-Ty2
Experimental: (§8) The gram-positive bacterial strains are: Enterococcus faecalis (ATCC 29212), and Staphylococcus aureus (ATCC 25923) and the gram-negative strains are: Escherichia coli (ATCC 25922), Pseudomonas aeruginosa (ATCC 27853) and Salmonella typhimurim (clinical isolate), Salmonella typhiTy2 (WHO). The bacteria are cultured with shaking all night at 37° C., then recultured at a dilution of 1:50 in some fresh Luria-Bertani (LB) medium for 2 hours. The bacterial concentration is adjusted to […], and 50 μl is distributed in 96-well plates with an equal volume of peptides diluted half and half (256-0.5 μg/ml) in LB medium. […] To determine the minimum bactericide concentration, 10 μl from each well is spread on gelose plates in LB medium.
(§9) The results are expressed as the peptide concentration in MBC (μM).

[11] = system: gram-positive and gram-negative bacterial strains; experiment: Antibacterial activity of cationic peptides, summary over strains; type: cell-based; conditions: summary of Table 29
Experimental: as §8
However, when peptide HPB13 (SEQ ID NO: 38) is coupled with peptide SEQ ID NO: 24, it enhances its activity by a factor of 50 to 100 (peptide SEQ ID NO: 45). […] None these peptides are active on gram-positive bacteria.

[12] = system: Escherichia coli (ATCC 25922); experiment: microbe, parasite or virus in culture; type: cell-based; conditions: ATCC 25922; read-out: MBC
Experimental: as §8, §9

[13] = system: Enterococcus faecalis (ATCC 29212); experiment: microbe, parasite or virus in culture; type: cell-based; conditions: ATCC 29212
Experimental: as §8, §9

[14] = system: Staphylococcus aureus (ATCC 25923); experiment: microbe, parasite or virus in culture; type: cell-based; conditions: ATCC 25923
Experimental: as §8, §9

[15] = system: Pseudomonas aeruginosa (ATCC 27853); experiment: microbe, parasite or virus in culture; type: cell-based; conditions: ATCC 27853
Experimental: as §8, §9

HeLa cells [16] = experiment: Penetration of peroxidase transported by peptide-IgG anti-PO transporter; type: cell-based, human; conditions: via the transporter [peptide-IgG anti-PO]
Experimental: Two mg of specific monoclonal IgG antibody of peroxidase or their fragment F(ab′)2 in 1 ml of potassium phosphate buffer 0.1 M, pH 7.4 are added to 110 μg of SMCC [succinimidyl 4-(N-maleimidomethyl)cyclohexane-1-carboxylate] in 11 μl of dimethylsulfoxide. The solution is incubated for 45 minutes at laboratory temperature. The excess reagent is eliminated by centrifugation on ultrafiltration membranes (cutoff threshold =10,000 Da, Vivascience), followed by three washings in sodium phosphate buffer 10 mM, pH 7 containing 0.5 M of NaCl and 5 mM of EDTA.
The peptide is then coupled in a molar ratio of 6 peptides to 1 IgG or 1 F(ab′)2 in the sodium phosphate buffer 10 mM, pH 7, containing 0.5 M of NaCl and 5 mM of EDTA for three hours at laboratory temperature. Then, the excess uncoupled peptide is totally eliminated by centrifugation on ultrafiltration membranes, as in the preceding step. These transporters [peptide-IgG anti-PO] are added to the peroxidase or the biotinylated peroxidase in some 0.5 M NaCl buffer. The solution is incubated for 1 hour at laboratory temperature. The molar ratio of this reaction is 2 PO/1 IgG or F(ab′)2. […]
To measure the quantity of PO internalized, the cells are trypsinized, transferred into microtubes and counted. […]

GRPRESGKKRKRKRLKP [SEQ ID NO: 21]
S-PO internalized (H1299 cells [1]): 1680 pg/10^4 cells
Internalization of Peptide-peroxidase (H1299 cells [2]): 21.9 pg/10^3 cells
Kd [3]: 135 nM
Internalization of Peptide-peroxidase (3T3): 83.7 pg/10^3 cells
Kd [4]: 16 nM
Kd [5]: 12 nM
heparin concentration necessary to inhibit 50% penetration of the peptides coupled to peroxidase (HeLa cells [6]): 2.3 µg/mL
Internalization of Peptide-peroxidase (HeLa): 13.2 pg/10^3 cells
heparin concentration necessary to inhibit 50% penetration of the peptides coupled to peroxidase (3T3 cells): 4.1 µg/mL
Kd [7]: 110 nM

Natural cytochrome C: hemoprotein, single polypeptide chain of 104 amino acids
% inhibition of growth (HT29 cells; 12.5 μg/ml): 0%
% inhibition of growth (HT29 cells; 25 μg/ml): 0%
% inhibition of growth (HT29 cells; 50 μg/ml): 10%
% inhibition of growth (HT29 cells; 100 μg/ml): 19%
% inhibition of growth (HT29 cells; 200 μg/ml): 12* %
% inhibition of growth (H1299 cells [8]; 3 μg/ml): 0%
% inhibition of growth (H1299 cells [8]; 6 μg/ml): 0%
% inhibition of growth (H1299 cells [8]; 12.5 μg/ml): 0%
% inhibition of growth (H1299 cells [8]; 25 μg/ml): 0%
% inhibition of growth (H1299 cells [8]; 50 μg/ml): 0%
% inhibition of growth (H1299 cells [8]; 100 μg/ml): 0* %
penetration, intensity of the coloration (H1299 cells [9]; 25 μg/ml): −
penetration, intensity of the coloration (H1299 cells [9]; 50 μg/ml): −
penetration, intensity of the coloration (H1299 cells [9]; 100 μg/ml): −*

SERKKRRRESRKKRRRES [SEQ ID NO: 26]
Inhibition of the growth of the tumors (HH9 tumors): 10%

VKRGLKLVKRGLKLVKRGLKL [SEQ ID NO: 3]
S-PO internalized (H1299 cells [1]): 642 pg/10^4 cells
Internalization of Peptide-peroxidase (H1299 cells [2]): 17.7 pg/10^3 cells
Kd [3]: 37 nM
MBC [10]: 1.65 µM
bactericide / anti-microbial activity [11]: has bactericide activity
Internalization of Peptide-peroxidase (3T3): 24.6 pg/10^3 cells
Kd [4]: 41 nM
Kd [5]: 35 nM
Internalization of Peptide-peroxidase (HeLa): 11.2 pg/10^3 cells
MBC [12]: 13.25 µM
MBC [13]: >106 µM
MBC [14]: >106 µM
MBC [15]: 26.5 µM
Kd [7]: 41 nM

B1: Peroxidase (PO): peroxidase transported by the transporter [peptide-IgG anti-PO] (protein)
chain: QLTPTFYDNSCPNVSNIVRDTIVNELRSDPRIAASILRLHFHDCFVNGCDASILLDNTTSFRTEKDAFGNANSARGFPVIDRMKAAVESACPRTVSCADLLTIAAQQSVTLAGGPSWRVPLGRRDSLQAFLDLANANLPAPFFTLPQLKDSFRNVGLNRSSDLVALSGGHTFGKNQCRFIMDRLYNFSNTGLPDPTLNTTYLQTLRGLCPLNGNLSALVDFDLRTPTIFDNKYYVNLEEQKGLIQSDQELFSSPNATDTIPLVRSFANSTQTFFNAFVEAMDRMGNITPLTGTQGQIRLNCRVVNSNS
Quantity of molecules internalized (HeLa cells [16]): 2100 pg/10^4 cells

B2: Biotinylated PO: biotinylated peroxidase transported by the transporter [peptide-IgG anti-PO] (protein)
chain: B1 chain
Quantity of molecules internalized (HeLa cells [16]): 1700 pg/10^4 cells
